From patent US5089513A, “5-lipoxygenase inhibitory thiazoles” (ICI Pharma, priority 1988, dated 1992)

Key:
5-LO [1] = molecular target: T1, 5-LO (Cavia porcellus, UniProt A0A286X958); assay: Test a) in vitro spectrophotometric cell free enzyme assay using 5-LO isolated from guinea pig neutrophils; assay type: biochemical
T1 construct: 5-LO isolated from guinea pig neutrophils; endogenous in cells; host or cells: guinea pig neutrophils (enzyme isolated, soluble, cell-free)
T1 sequence (A0A286X958 1-674): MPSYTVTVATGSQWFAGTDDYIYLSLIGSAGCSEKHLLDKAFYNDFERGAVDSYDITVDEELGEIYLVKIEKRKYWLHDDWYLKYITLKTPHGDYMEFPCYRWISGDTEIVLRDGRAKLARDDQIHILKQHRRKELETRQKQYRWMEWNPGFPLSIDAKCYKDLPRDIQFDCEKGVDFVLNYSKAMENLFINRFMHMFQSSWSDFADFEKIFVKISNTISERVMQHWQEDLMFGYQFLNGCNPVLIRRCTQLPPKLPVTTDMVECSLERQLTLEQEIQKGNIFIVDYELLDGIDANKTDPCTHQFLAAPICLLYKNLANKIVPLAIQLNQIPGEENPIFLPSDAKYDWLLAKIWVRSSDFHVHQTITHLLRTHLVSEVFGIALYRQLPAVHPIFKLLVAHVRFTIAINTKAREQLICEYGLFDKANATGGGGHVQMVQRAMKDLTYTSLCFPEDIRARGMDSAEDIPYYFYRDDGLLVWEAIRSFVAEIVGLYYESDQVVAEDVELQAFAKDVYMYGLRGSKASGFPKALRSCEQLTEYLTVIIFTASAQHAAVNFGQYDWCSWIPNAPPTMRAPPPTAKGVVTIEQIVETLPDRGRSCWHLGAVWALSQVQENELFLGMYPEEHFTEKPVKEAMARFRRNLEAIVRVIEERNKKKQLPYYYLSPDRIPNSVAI
Source text: a) An in vitro spectrophotometric enzyme assay system, which assesses the inhibitory properties of a test compound in a cell free system using 5-LO isolated from guinea pig neutrophils and as described by D.Aharony and R. L. Stein (J. Biol. Chem., 1986, 261(25), 11512-11519). This test provides a measure of the intrinsic inhibitory properties against soluble 5-LO in an extracellular environment.

5-LO [2] = molecular target: T2, 5-LO (Rattus norvegicus, UniProt P12527); assay: Test c) ex vivo assay, blood collected after oral administration, A23187 challenge, LTB4 radioimmunoassay; assay type: in vivo
T2 construct: blood collection, heparinisation, challenge with A23187 and radioimmunoassay of LTB4 and TxB2; endogenous in cells
T2 sequence (P12527 1-673): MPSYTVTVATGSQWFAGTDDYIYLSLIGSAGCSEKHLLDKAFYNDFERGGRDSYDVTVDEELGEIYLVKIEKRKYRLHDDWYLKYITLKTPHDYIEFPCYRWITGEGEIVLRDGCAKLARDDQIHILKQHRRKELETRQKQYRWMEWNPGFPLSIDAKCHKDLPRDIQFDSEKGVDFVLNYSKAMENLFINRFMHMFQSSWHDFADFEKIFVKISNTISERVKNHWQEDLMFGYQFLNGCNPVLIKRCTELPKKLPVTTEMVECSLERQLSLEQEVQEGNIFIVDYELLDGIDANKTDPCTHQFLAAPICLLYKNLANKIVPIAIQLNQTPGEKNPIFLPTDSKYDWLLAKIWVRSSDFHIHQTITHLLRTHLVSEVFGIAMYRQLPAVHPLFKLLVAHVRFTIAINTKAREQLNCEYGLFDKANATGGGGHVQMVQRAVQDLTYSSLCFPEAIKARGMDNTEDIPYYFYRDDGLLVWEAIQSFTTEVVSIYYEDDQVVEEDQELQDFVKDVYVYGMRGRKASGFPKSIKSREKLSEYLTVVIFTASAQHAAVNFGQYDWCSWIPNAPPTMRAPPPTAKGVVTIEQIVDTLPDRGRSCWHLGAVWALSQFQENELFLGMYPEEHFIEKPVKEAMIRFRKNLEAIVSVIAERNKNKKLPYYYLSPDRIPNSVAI

cyclooxygenase = molecular target: T3, cyclooxygenase (Homo sapiens, UniProt P23219); assay: Test b) heparinised human blood challenged with A23187, TxB2 radioimmunoassay; assay type: cell-based
T3 construct: incubating a test compound with heparinised human blood; endogenous in cells; host or cells: blood cells (mainly platelets, own knowledge) in heparinised human whole blood
Method: b) An in vitro assay system involving incubating a test compound with heparinised human blood, prior to challenge with the calcium ionophore A23187 and then indirectly measuring the inhibitory effects on 5-LO by assaying the amount of LTB4 using the specific radioimmunoassay described by Carey and Forder (F. Carey and R. A. Forder, Brit. J. Pharmacol. 1985, 84, 34P) which involves the use of a protein-LTB4 conjugate produced using the procedure of Young et alia (Prostaglandins, 1983, 26(4),605-613). The effects of a test compound on the enzyme cyclooxygenase (which is involved in the alternative metabolic pathway for arachidonic acid and gives rise to prostaglandins, thromboxanes and related metabolites) may be measured at the same time using the specific radioimmunoassay for thromboxane B2 (TxB2) described by Carey and Forder (see above). This test provides an indication of the effects of a test compound against 5-LO and also cyclooxygenase in the presence of blood cells and proteins. It permits the selectivity of the inhibitory effect on 5-LO or cyclooxygenase to be assessed.

5-LO [3] = molecular target: T4, 5-LO (Homo sapiens, UniProt P09917); assay: Test b) heparinised human blood challenged with A23187, LTB4 radioimmunoassay; assay type: cell-based
T4 construct: incubating a test compound with heparinised human blood; endogenous in cells; host or cells: leukocytes in heparinised human whole blood
T4 sequence (P09917 1-674): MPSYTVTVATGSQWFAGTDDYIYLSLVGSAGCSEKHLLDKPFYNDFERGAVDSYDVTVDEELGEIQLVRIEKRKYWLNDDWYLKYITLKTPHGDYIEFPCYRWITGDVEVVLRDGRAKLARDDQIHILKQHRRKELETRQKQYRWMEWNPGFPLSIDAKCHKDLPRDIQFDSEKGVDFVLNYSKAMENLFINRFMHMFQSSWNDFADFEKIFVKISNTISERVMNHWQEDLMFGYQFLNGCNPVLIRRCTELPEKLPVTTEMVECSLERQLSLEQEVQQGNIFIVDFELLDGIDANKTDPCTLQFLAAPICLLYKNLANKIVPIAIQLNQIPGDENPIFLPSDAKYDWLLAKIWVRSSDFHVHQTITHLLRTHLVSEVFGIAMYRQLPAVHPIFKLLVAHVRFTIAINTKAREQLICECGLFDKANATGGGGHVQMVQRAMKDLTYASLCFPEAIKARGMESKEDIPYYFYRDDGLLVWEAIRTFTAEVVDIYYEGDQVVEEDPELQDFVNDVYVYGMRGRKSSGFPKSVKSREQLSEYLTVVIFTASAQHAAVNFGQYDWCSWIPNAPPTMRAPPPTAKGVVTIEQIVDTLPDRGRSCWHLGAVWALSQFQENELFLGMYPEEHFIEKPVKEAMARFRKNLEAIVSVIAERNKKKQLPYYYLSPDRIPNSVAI
Method: b) An in vitro assay system involving incubating a test compound with heparinised human blood, prior to challenge with the calcium ionophore A23187 and then indirectly measuring the inhibitory effects on 5-LO by assaying the amount of LTB4 using the specific radioimmunoassay described by Carey and Forder (F. Carey and R. A. Forder, Brit. […] This test provides an indication of the effects of a test compound against 5-LO and also cyclooxygenase in the presence of blood cells and proteins. It permits the selectivity of the inhibitory effect on 5-LO or cyclooxygenase to be assessed.

T3 sequence (P23219 24-599): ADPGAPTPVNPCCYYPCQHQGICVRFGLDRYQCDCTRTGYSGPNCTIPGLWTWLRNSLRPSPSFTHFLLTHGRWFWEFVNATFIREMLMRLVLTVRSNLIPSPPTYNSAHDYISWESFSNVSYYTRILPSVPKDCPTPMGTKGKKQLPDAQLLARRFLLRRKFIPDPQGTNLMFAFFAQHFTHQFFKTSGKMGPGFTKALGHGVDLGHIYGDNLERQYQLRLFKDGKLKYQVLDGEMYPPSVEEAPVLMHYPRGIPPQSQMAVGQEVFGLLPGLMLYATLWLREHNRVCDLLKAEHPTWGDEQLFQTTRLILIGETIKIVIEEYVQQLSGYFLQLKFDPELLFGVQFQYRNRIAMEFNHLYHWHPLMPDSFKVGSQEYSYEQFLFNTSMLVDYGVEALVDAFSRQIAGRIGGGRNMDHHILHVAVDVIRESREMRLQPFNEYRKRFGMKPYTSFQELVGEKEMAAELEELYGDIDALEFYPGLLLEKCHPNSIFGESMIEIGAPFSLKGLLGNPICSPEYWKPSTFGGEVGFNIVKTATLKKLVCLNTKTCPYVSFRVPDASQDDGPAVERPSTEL

Structure (SMILES) | IC50 (5-LO [1]) [nM] | ED50 (5-LO [2]) [mg/kg] | IC50 (cyclooxygenase) [nM] | IC50 (5-LO [3]) [nM]
CCC(OC)(c1cccc(OCc2ccc3ccccc3c2)c1)c1nccs1 (centres unmarked) [2-[1-methoxy-1-[3-(naphth-2-ylmethoxy)phenyl]propyl]thiazole] | 100 | 10 | > 100000 | 
CCC(OC)(c1cccc(OCC#Cc2ccc(F)cc2)c1)c1nccs1 (centres unmarked) [2-[1-[3-(3-(4-fluorophenyl)prop-2-ynyloxy)phenyl]-1-methoxypropyl]thiazole] |  | 10 |  | 40
